Laboratory results: patent US5767124A, “Polymorphic forms of a growth hormone secretagogue” (priority 1996, dated 1998)
“Also recorded” adds a separate entry of the source. Like-named read-outs stand apart in the source and are kept apart here.

Key:
Type in all cases: physicochemical
Bulk density = conditions: compared with other forms
[1] = Total volatiles / water content (TGA) and water of hydration; conditions: for moles of water per mole of compound: appears to be a hygroscopic hydrate
Excerpt: (§1) The total volatiles content (as established by TGA analysis) of solid samples of Forms I, II, III and IV upon exposure to various controlled humidities is tabulated below.

[2] = Hygroscopicity: storage of solid forms in constant relative humidity chambers; conditions: for % Gain/Loss / change of sample on storage at high humidity (footnote): room temperature; for change of sample on storage at high humidity (footnote): Form II 48 hrs at 65-100% RH, Form I 96 hrs at 88 and 100% RH
Experimental: as §1
Hygroscopicity was assessed by storing the solid compound in constant relative humidity chambers. […] The results are tabulated below in Tables 1 and 2.

[3] = Solubility of CBZ-sulfonamide 1 in toluene/n-PrOH mixtures by HPLC assay; conditions: 0% toluene in n-PrOH
Experimental: The temperature of both the head and pot rose from 94° C. to 98° C. during the solvent switch. Toluene and n-PrOH form an azeotrope boiling at 97.2° C. composed of 47.5% toluene and 52.5% n-PrOH. The mixture was allowed to cool gradually to 20° C. over 3h and aged for 12 h. […] The solubility of the sulfonamide in various mixtures of toluene and n-PrOH has been determined by HPLC assay: […]

[4] = Solubility of Forms I and II in water, buffer, ethanol/water and isopropanol
Experimental: The solubility of Form I in distilled water at room temperature is >100 mg/mL. The aqueous solubility (RT) of Form II in buffered solutions (pH 4-9) is >100 mg/mL. The solubility of Form I in ethanol/water mixtures is shown below: […]

[5] = Thermal stability of neat compound (solid state, HPLC); conditions: for thermal stability in words: neat solid; for remaining at 168 h: 1 Wk; for remaining at 336 h: 2 Wks; for remaining at 672 h: 4 Wks; for remaining at 4032 h: 24 Wks; for remaining at 1344 h: 8 Wks; for remaining at 1008 h: 6 Wks; for remaining at 1008 h / remaining at 2856 h: read-out: % Inital; for remaining at 2856 h: 17 Wks
Experimental: The solid state stability of neat compound was assessed by storage of the drug in glass screw-cap vials in the dark. Samples were assayed by HPLC and the parent compound was quantitatively analyzed. The isocratic method that was employed is outlined below:
Column: Beckman Ultrasphere ODS (250×4.6 mm, 5 μ)
Mobile Phase: 0.1% TEA, pH 4.0 with H3 PO4 :Acetonitrile (65:35)
Detection Wavelength: 228 nm
Column Temperature: Ambient
Injection Volume: 20 μL of N-[I(R)-[(1,2-dihydro-1-methanesulfonyl-spiro[3H-indole-3,4'-piperdin]-1'- yl)carbonyl]-2-(phenylmethyl-oxy)ethyl]-2-amino-2-methylpropanamide methanesulfonate (50 μg/mL)
The results shown below for Forms I and II were calculated as weight percent.

[6] = 76% RH, 48 hrs, footnote a = sample becomes a gummy semisolid
[7] = 100% RH, 48 hrs, footnotes a = gummy semisolid, b = converts to Form IV upon exposure to ambient humidity
[8] = solid state, 40 °C, in the dark, read-out: % Initial
[9] = solid state, 60 °C, in the dark, read-out: % Initial
[10] = solid state, 80 °C, in the dark, read-out: % Initial
[11] = 65% RH, 48 hrs, footnote a = sample becomes a gummy semisolid
[12] = solid state, 40 °C, in the dark
[13] = solid state, 60 °C, in the dark
[14] = solid state, 80 °C, in the dark

Row | SMILES | water content (total volatiles by TGA) [1] | moles of water per mole of compound [1] | % Gain/Loss ([2]; 0% RH, 48 hrs) | % Gain/Loss ([2]; 11% RH, 48 hrs) | % Gain/Loss ([2]; 33% RH, 48 hrs) | % Gain/Loss ([2]; 47% RH, 48 hrs) | % Gain/Loss [2, 6] | % Gain/Loss [2, 7] | hygroscopicity in words [2] | solubility in isopropanol [4] | thermal stability in words [5] | % Gain/Loss [2, 11] | change of sample on storage at high humidity (footnote) [2] | also measured
1 | CC(C)(N)C(=O)N[C@H](COCc1ccccc1)C(=O)N1CCC2(CC1)CN(S(C)(=O)=O)c1ccccc12 [Form IV, N-[1(R)-[(1,2-dihydro-1-methanesulfonylspiro[3H-indole-3,4'-piperdin]-1'-yl)carbonyl]-2-(phenylmethyloxy)ethyl]-2-amino-2-methylpropanamide methanesulfonate] | 9.5-10.0 wt % | 3.5 moles of water per mole | -7.8% | -4.9% | +0.3% | +0.7% | +1.5% | +5.3% | – | – | – | – | – | bulk density (Bulk density): higher bulk density than other forms; % Gain/Loss ([2]; 66% RH, 48 hrs): +1.4%
2 | CS(=O)(=O)N1CC2(CCN(C(=O)OCc3ccccc3)CC2)c2ccccc21 [Form 1, CBZ-Spiroindoline-methanesulfonamide] | – | – | – | – | – | – | – | – | – | – | – | – | – | solubility of 1 [3]: 2.36 mg/mL
3 | CC(C)(N)C(=O)N[C@H](COCc1ccccc1)C(=O)N1CCC2(CC1)CN(S(C)(=O)=O)c1ccccc12 [Form V, N-[1(R)-[(1,2-dihydro-1-methanesulfonylspiro[3H-indole-3,4'-piperdin]-1'-yl)carbonyl]-2-(phenylmethyloxy)ethyl]-2-amino-2-methylpropanamide methanesulfonate] | – | 1 moles of water per mole | – | – | – | – | – | – | hygroscopic | – | – | – | – | –
4 | CC(C)(N)C(=O)N[C@H](COCc1ccccc1)C(=O)N1CCC2(CC1)CN(S(C)(=O)=O)c1ccccc12 [Form III, N-[1(R)-[(1,2-dihydro-1-methanesulfonylspiro[3H-indole-3,4'-piperdin]-1'-yl)carbonyl]-2-(phenylmethyloxy)ethyl]-2-amino-2-methylpropanamide methanesulfonate] | 4.5-5.0 wt % | – | – | -0.15% | +2.23% | +3.99% | +3.76% | – | shows an increase in moisture after 48-hr storage at 33% RH | – | – | – | – | –
5 | CC(C)(N)C(=O)N[C@H](COCc1ccccc1)C(=O)N1CCC2(CC1)CN(S(C)(=O)=O)c1ccccc12 [Form II, N-[1(R)-[(1,2-dihydro-1-methanesulfonylspiro[3H-indole-3,4'-piperdin]-1'-yl)carbonyl]-2-(phenylmethyloxy)ethyl]-2-amino-2-methylpropanamide methanesulfonate] | 0.56 wt % | – | +0.08% | +0.02% | +0.33% | +0.39% | > 10.0% | > 10.0% | hygroscopic and exhibits a large increase in moisture starting at 65% RH | 12.3 mg/mL | good thermal stability | > 10.0% | Sample becomes a gummy semisolid; also recorded: Converts to Form IV upon exposure to ambient humidity | solubility ([4]; buffer ph 4-9, RT, pH 4-9, read-out: aqueous solubility in buffered solutions): > 100 mg/mL; solubility in IPA ([4]; crystalline material from EtOAc-EtOH): 12 mg/mL; % Initial ([5]; 80 °C, 12 Wks, in the dark, 120960 min): 100.4%; remaining at 168 h [5, 8]: 99.7%; remaining at 336 h [5, 8]: 101%; remaining at 672 h [5, 8]: 99.5%; remaining at 4032 h [5, 8]: 100%; remaining at 168 h [5, 9]: 99.4%; remaining at 336 h [5, 9]: 99.6%; remaining at 672 h [5, 9]: 100%; remaining at 1344 h [5, 9]: 100%; remaining at 2016 h ([5]; solid state, 60 °C, 12 Wks, in the dark, read-out: % Initial): 101%; remaining at 4032 h [5, 9]: 101%; remaining at 168 h [5, 10]: 99.2%; remaining at 336 h [5, 10]: 100%; remaining at 672 h [5, 10]: 99.2%; remaining at 1344 h [5, 10]: 99.8%
6 | CC(C)(N)C(=O)N[C@H](COCc1ccccc1)C(=O)N1CCC2(CC1)CN(S(C)(=O)=O)c1ccccc12 [Form I, N-[1(R)-[(1,2-dihydro-1-methanesulfonylspiro[3H-indole-3,4'-piperdin]-1'-yl)carbonyl]-2-(phenylmethyloxy)ethyl]-2-amino-2-methylpropanamide methanesulfonate] | 0.79 wt % | – | -0.02% | -0.05% | – | +0.21% | +0.12% | > 12.0% | non-hygroscopic; also recorded: the wet crystals are very hygroscopic; also recorded: No substantial moisture increase is exhibited by Form I except when stored above 76% RH | 4.6 mg/niL | good thermal stability | +0.37% | deliquescent material | solubility ([4]; distilled water, water, room temperature, read-out: solubility in distilled water): > 100 mg/mL; solubility ([4]; ethanol/water 25/75, organic solvent or mixture, % Ethanol/H2O 25/75, read-out: Solubility in ethanol/water): > 100 mg/mL; solubility ([4]; ethanol/water 50/50, organic solvent or mixture, % Ethanol/H2O 50/50, read-out: Solubility in ethanol/water): > 100 mg/mL; solubility ([4]; ethanol/water 75/25, organic solvent or mixture, % Ethanol/H2O 75/25, read-out: Solubility in ethanol/water): > 90 mg/mL; solubility ([4]; organic solvent or mixture, 100% ethanol, read-out: Solubility in ethanol): > 90 mg/mL; remaining at 1008 h [5, 12]: 100%; remaining at 2856 h [5, 12]: 98.7%; remaining at 1008 h [5, 13]: 101%; remaining at 2856 h [5, 13]: 101%; remaining at 1008 h [5, 14]: 101%; remaining at 2856 h [5, 14]: 99.4%; water content in words [1]: relatively anhydrous; % Gain/Loss ([2]; 7% RH, 96 hrs): +0.4%; % Gain/Loss ([2]; 22% RH, 96 hrs): +0.3%; % Gain/Loss ([2]; 47% RH, 96 hrs): +0.5%; % Gain/Loss ([2]; 68% RH, 96 hrs): +0.6%; % Gain/Loss ([2]; 88% RH, 96 hrs, * = deliquescent material): +12.9%; % Gain/Loss ([2]; 100% RH, 96 hrs, * = deliquescent material): +23.9%
